In patent US20210317099A1, “SAFER, POTENT, AND FAST ACTING ANTIMICROBIAL AGENTS” (Purdue Research Foundation, priority 2020, published 2021):
≈ marks a conversion by molar mass, not a printed value. Where two headings read alike, the source gives them in different places.

Tests used:
Type in all cases: cell-based
[1] = system: Staphylococcus aureus NRS384 (MRSA USA300); experiment: Initial MIC screening, broth microdilution (CLSI); conditions: for MIC: Staphylococcus aureus NRS384 (MRSA USA300), broth microdilution, visual reading
How it was run: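 MRSA USA300 grown 24 h at 37 °C on tryptic soy agar, then adjusted to 5×10^5 CFU/ml in cation-adjusted Mueller-Hinton broth. Compounds serially diluted 64 to 0.5 μg/mL per CLSI broth microdilution; MIC recorded.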

[2] = system: Enterococcus faecium ATCC 700221 (VRE); experiment: MIC, Gram-positive panel; conditions: Enterococcus faecium ATCC 700221 (VRE); read-out: MIC
Protocol: (§1) Next, the spectrum of antibacterial activity of compounds 144, 148, 149, 151, 155, 158, and 187 was examined against a panel of clinically relevant Gram-positive bacterial pathogens including methicillin-resistant Staphylococcus aureus (MRSA), vancomycin-resistant Staphylococcus aureus (VRSA), vancomycin-resistant Enterococcus faecalis and Enterococcus faecium (VRE), and Streptococcus pneumoniae. Bacterial strains were grown aerobically overnight on tryptone soya agar plates at 37° C. Afterwards, a bacterial solution equivalent to 0.5 McFarland standard was prepared and diluted in cation-adjusted Mueller-Hinton broth (CAMHB) (for staphylococci). Enterococci and Streptococci were diluted in tryptone soya broth (TSB) to achieve a bacterial concentration of about 5×10^5 CFU/mL and seeded in 96-well plates. Compounds and control drugs were added in the first row of 96-well plates and serially diluted with media containing bacteria. Plates were then, incubated aerobically at 37° C. for 18-20 hours (except for S. pneumoniae, which was incubated at 37° C. in presence of 5% CO2 for 18-20 hours).

[3] = system: Enterococcus faecalis ATCC 51299 (VRE); experiment: MIC, Gram-positive panel; conditions: Enterococcus faecalis ATCC 51299 (VRE); read-out: MIC
Protocol: as §1

[4] = system: S. pneumoniae ATCC 51916; experiment: MIC, Gram-positive panel; conditions: Streptococcus pneumoniae, ATCC51916; S. pneumoniae ATCC 51916; read-out: MIC
Protocol: as §1

[5] = system: MRSA NRS 123; experiment: MIC, Gram-positive panel; conditions: Staphylococcus aureus; MRSA NRS 123; read-out: MIC
Protocol: as §1

[6] = system: Methicillin-resistant S. pneumoniae ATCC 700677; experiment: MIC, Gram-positive panel; conditions: Streptococcus pneumoniae, ATCC700677; Methicillin-resistant S. pneumoniae ATCC 700677; read-out: MIC
Protocol: as §1

[7] = system: MRSA NRS 119; experiment: MIC, Gram-positive panel; conditions: Staphylococcus aureus; MRSA NRS 119; read-out: MIC
Protocol: as §1

[8] = system: VRSA 10; experiment: MIC, Gram-positive panel; conditions: Staphylococcus aureus; VRSA 10; read-out: MIC
Protocol: as §1

[9] = system: VRSA 12; experiment: MIC, Gram-positive panel; conditions: Staphylococcus aureus; VRSA 12; read-out: MIC
Protocol: as §1

[10] = system: S. aureus ATCC 6538; experiment: MIC, Gram-positive panel; conditions: Staphylococcus aureus, ATCC6538; S. aureus ATCC 6538; read-out: MIC
Protocol: as §1

[11] = system: S. aureus NRS 107; experiment: MIC, Gram-positive panel; conditions: Staphylococcus aureus, NRS107; S. aureus NRS 107; read-out: MIC
Protocol: as §1

[12] = system: MRSA NRS 385; experiment: MIC, Gram-positive panel; conditions: Staphylococcus aureus; MRSA NRS 385; read-out: MIC
Protocol: as §1

[13] = system: Methicillin-resistant S. epidermidis NRS101; experiment: MIC, Gram-positive panel; conditions: Staphylococcus epidermidis; Methicillin-resistant S. epidermidis NRS101; read-out: MIC
Protocol: as §1

[14] = system: MRSA NRS 386; experiment: MIC, Gram-positive panel; conditions: Staphylococcus aureus; MRSA NRS 386; read-out: MIC
Protocol: as §1

[15] = system: human keratinocytes cell line (HaCaT cells); experiment: In vitro cytotoxicity, MTS assay; conditions: 2 h
Protocol: Compounds 144, 148, 149, 151, 155, and 158 were assayed (at concentrations of 16, 32, and 64 μg/mL) against a human keratinocytes cell line (HaCaT cells) to determine their in vitro potential toxic effect. Briefly, cells were cultured in Dulbecco's Modified Eagle Medium (DMEM) supplemented with 10% fetal bovine serum (FBS) and penicillin-streptomycin at 37° C. in presence of 5% CO2. Compounds were added in the first row of the 96-well plate. Control cells received DMSO alone at a concentration equivalent to that in drug-treated wells. The cells were incubated with the compounds (in triplicate) in a 96-well plate at 37° C. in presence of 5% CO2 for two hours. The assay reagent MTS 3-(4,5-dimethylthiazol-2-yl)-5-(3-carboxymethoxyphenyl)-2-(4-sulfophenyl)-2H-tetrazolium) (Promega, Madison, Wis., USA) was subsequently added and the plate was incubated for three to four hours. Absorbance readings (at OD490) were recorded using a kinetic microplate reader (Molecular Devices, Sunnyvale, Calif., USA). The quantity of viable cells after treatment with each compound was expressed as a percentage of the viability to DMSO-treated control cells (average of triplicate wells±standard deviation).
FIG. 2. Analyzing the toxicity of compounds 144, 148, 149, 151, 155 and 158 (tested in triplicates at 16, 32 and 64 μg/mL) against human keratinocytes cells (HaCaT) using the MTS 3-(4,5-dimethylthiazol-2-yl)-5-(3-carboxymethoxyphenyl)-2-(4-sulfophenyl)-2H-tetrazolium) assay. Results are presented as percent viable cells relative to DMSO (negative control to determine a baseline measurement for the cytotoxic impact of each compound). The absorbance values represent an average of three samples analyzed for each compound. Error bars represent standard deviation values. The data were analyzed via a two-way ANOVA with post-hoc Dunnett's test for multiple comparisons. An asterisk (*) denotes statistical significance (P<0.05) between results for compounds and DMSO.

[16] = Staphylococcus aureus, read-out: MIC

MIC [1] [µg/mL]	MIC [1, 16] [µg/mL]	MIC [2] [µg/mL]	MIC [3] [µg/mL]	MIC [4] [µg/mL]	MIC [5] [µg/mL]	MIC [6] [µg/mL]	MIC [7] [µg/mL]	MIC [8] [µg/mL]	MIC [9] [µg/mL]	MIC [10] [µg/mL]	MIC [11] [µg/mL]	MIC [12] [µg/mL]	MIC [13] [µg/mL]	MIC [14] [µg/mL]	Compound	tolerable concentration as multiple of MIC against MRSA [15] [times]	potency compared with control antibiotic ([1]; MRSA USA300, Table 1 assay)
1 (≈ 3.31 µM)	1 to 2 (≈ 3.31 to 6.61 µM)	> 64	> 64	1 (≈ 3.31 µM)	2 (≈ 6.61 µM)	1 (≈ 3.31 µM)	2 (≈ 6.61 µM)	1 (≈ 3.31 µM)	2 (≈ 6.61 µM)	1 (≈ 3.31 µM)	1 (≈ 3.31 µM)	1 (≈ 3.31 µM)	0.5 (≈ 1.65 µM)	1 (≈ 3.31 µM)	C=C1C(=O)O[C@H](C2=CC=CCC2)[C@H]1c1cccc2ccccc12 [Compound 187]	16 to 32	
1 (≈ 3.01 µM)	1 to 2 (≈ 3.01 to 6.02 µM)	64 (≈ 193 µM)	> 64	1 (≈ 3.01 µM)	1 (≈ 3.01 µM)	1 (≈ 3.01 µM)	1 (≈ 3.01 µM)	1 (≈ 3.01 µM)	1 (≈ 3.01 µM)	1 (≈ 3.01 µM)	1 (≈ 3.01 µM)	1 (≈ 3.01 µM)	1 (≈ 3.01 µM)	1 (≈ 3.01 µM)	C=C(C(=O)OC)C(c1cccc2ccccc12)C(O)c1ccccc1 (stereo not drawn) [Compound 144]	16 to 32	potency similar to the oxazolidinone class of antimicrobial drug linezolid
